In patent publication US10934310B2, “Inhibitors of Bruton's tyrosine kinase and method of their use” (JANSSEN PHARMACEUTICA NV, priority 2015, dated 2021):

target: unphosphorylated-BTK kinase domain (UP-BTK), GST-tagged human BTK (389-659aa) (Homo sapiens (Human), UniProt Q06187); assay: BTK Kinase Lanthascreen Binding Assay; conditions: compound, 50 nM Tracer 236, 2 nM anti-GST antibody, 60 minutes; pIC50 = negative log of the IC50 in molar
Method: BTK Kinase Lanthascreen Binding Assay:
A BTK kinase lanthascreen binding assay monitors compound binding to unphosphorylated-BTK kinase domain (UP-BTK), by competing with a fluorescent labeled tracer. […] Data were analyzed using Xlfit™ version 5.3 from ID Business Solutions (Guildford), Microsoft Excel add-in. pIC50 refers to the negative log of the IC50 in molar.

unphosphorylated-BTK kinase domain (UP-BTK), GST-tagged human BTK (389-659aa), sequence (Q06187 389-659): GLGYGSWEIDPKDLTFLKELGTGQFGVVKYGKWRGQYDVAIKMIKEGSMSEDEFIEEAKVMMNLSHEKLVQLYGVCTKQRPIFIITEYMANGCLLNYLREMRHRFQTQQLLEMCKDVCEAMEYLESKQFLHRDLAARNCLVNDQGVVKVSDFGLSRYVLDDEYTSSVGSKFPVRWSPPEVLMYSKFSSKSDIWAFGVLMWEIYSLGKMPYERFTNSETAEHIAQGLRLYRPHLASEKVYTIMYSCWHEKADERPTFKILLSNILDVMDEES

BTK_I_binding pIC50	SMILES
7.54	Cc1cc(Oc2ccccc2)ccc1N1C(=O)Nc2c(C(=O)N[C@@H]3CCC[C@H]3N)sc3nccc1c23 (single isomer, unassigned) [Example 120, N-((1R,2R)-2-Aminocyclopentyl)-5-(*S)-(2-methyl-4-phenoxyphenyl)-4-oxo-4,5-dihydro-3H-1-thia-3,5,8-triazaacenaphthylene-2-carboxamide]
7.18	CNCC(=O)N[C@H]1CCC[C@H]1NC(=O)c1sc2nccc3c2c1NC(=O)N3c1ccc(Oc2ccccc2)cc1C (single isomer, unassigned) [Example 122, 5-(*S)-(2-Methyl-4-phenoxyphenyl)-N-((1R,2S)-2-(2-(methylamino)acetamido)cyclopentyl)-4-oxo-4,5-dihydro-3H-1-thia-3,5,8-triazaacenaphthylene-2-carboxamide]
7.07	Cc1cc(Oc2ccccc2)ccc1N1C(=O)Nc2c(C(=O)N[C@H]3CCC[C@@H]3NC(=O)CN(C)C)sc3nccc1c23 (single isomer, unassigned) [Example 123, N-((1S,2S)-2-(2-(Dimethylamino)acetamido)cyclopentyl)-5-(*S)-(2-methyl-4-phenoxyphenyl)-4-oxo-4,5-dihydro-3H-1-thia-3,5,8-triazaacenaphthylene-2-carboxamide]
7.11	CNCC(=O)N[C@H]1CCCC[C@H]1NC(=O)c1sc2nccc3c2c1NC(=O)N3c1ccc(Oc2ccccc2)cc1C (single isomer, unassigned) [Example 125, 5-(*S)-(2-Methyl-4-phenoxyphenyl)-N-((1R,2S)-2-(2-(methylamino)acetamido)cyclohexyl)-4-oxo-4,5-dihydro-3H-1-thia-3,5,8-triazaacenaphthylene-2-carboxamide]
7.10	Cc1cc(Oc2ccccc2)ccc1N1C(=O)Nc2c(C(=O)N[C@@H]3CCC[C@@H]3NC(=O)CN(C)C)sc3nccc1c23 (single isomer, unassigned) [Example 128, N-((1R,2S)-2-(2-(Dimethylamino)acetamido)cyclopentyl)-5-(*S)-(2-methyl-4-phenoxyphenyl)-4-oxo-4,5-dihydro-3H-1-thia-3,5,8-triazaacenaphthylene-2-carboxamide]
7.39	Cc1cc(Oc2ccccc2)ccc1N1C(=O)Nc2c(C(=O)N[C@@H]3CCCC[C@@H]3NC(=O)CN)sc3nccc1c23 (single isomer, unassigned) [Example 129, N-((1R,2S)-2-(2-Aminoacetamido)cyclohexyl)-5-(*S)-(2-methyl-4-phenoxyphenyl)-4-oxo-4,5-dihydro-3H-1-thia-3,5,8-triazaacenaphthylene-2-carboxamide]
7.17	Cc1cc(Oc2ccccc2)ccc1N1C(=O)Nc2c(C(=O)N[C@H]3CCC[C@@H]3NC(=O)CN)sc3nccc1c23 (single isomer, unassigned) [Example 130, N-((1S,2S)-2-(2-Aminoacetamido)cyclopentyl)-5-(*S)-(2-methyl-4-phenoxyphenyl)-4-oxo-4,5-dihydro-3H-1-thia-3,5,8-triazaacenaphthylene-2-carboxamide]
7.40	Cc1cc(Oc2ccccc2)ccc1N1C(=O)Nc2c(C(=O)N[C@@H]3CCC[C@@H]3NC(=O)CN)sc3nccc1c23 (single isomer, unassigned) [Example 131, N-((1R,2S)-2-(2-Aminoacetamido)cyclopentyl)-5-(*S)-(2-methyl-4-phenoxyphenyl)-4-oxo-4,5-dihydro-3H-1-thia-3,5,8-triazaacenaphthylene-2-carboxamide]
7.27	Cc1cc(Oc2ccccc2)ccc1N1C(=O)Nc2c(C(=O)N[C@@H]3CCCC[C@@H]3NC(=O)CN(C)C)sc3nccc1c23 (single isomer, unassigned) [Example 132, N-((1R,2S)-2-(2-(Dimethylamino)acetamido)cyclohexyl)-5-(*S)-(2-methyl-4-phenoxyphenyl)-4-oxo-4,5-dihydro-3H-1-thia-3,5,8-triazaacenaphthylene-2-carboxamide]
